Molecules are shown by their SMILES.

For one assay, the target named is T1, A-Raf (Homo sapiens, UniProt P10398).
T1 sequence (P10398 1-606): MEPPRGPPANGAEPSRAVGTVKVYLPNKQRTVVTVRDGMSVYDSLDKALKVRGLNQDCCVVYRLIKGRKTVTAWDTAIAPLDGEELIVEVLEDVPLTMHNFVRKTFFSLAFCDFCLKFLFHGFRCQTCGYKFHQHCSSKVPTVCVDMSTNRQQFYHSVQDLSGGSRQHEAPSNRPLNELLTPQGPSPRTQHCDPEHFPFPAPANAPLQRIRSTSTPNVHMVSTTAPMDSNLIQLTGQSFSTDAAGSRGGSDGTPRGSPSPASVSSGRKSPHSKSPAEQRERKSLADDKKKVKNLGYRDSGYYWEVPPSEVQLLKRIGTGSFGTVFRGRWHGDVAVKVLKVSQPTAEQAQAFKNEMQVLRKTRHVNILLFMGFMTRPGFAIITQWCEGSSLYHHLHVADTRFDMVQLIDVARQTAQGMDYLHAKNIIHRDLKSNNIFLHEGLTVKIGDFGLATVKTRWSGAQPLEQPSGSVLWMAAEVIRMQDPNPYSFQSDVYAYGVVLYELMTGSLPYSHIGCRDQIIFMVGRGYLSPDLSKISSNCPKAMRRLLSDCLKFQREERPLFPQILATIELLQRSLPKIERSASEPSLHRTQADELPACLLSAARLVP
Put plainly: A-Raf biochemical kinase inhibition (AlphaScreen, biotin-MEK1 substrate). The settings on record: 100 μM ATP. The protocol: Compounds to be tested are diluted in dimethyl sulfoxide to a concentration of 0.1 mM. These are serially diluted 15 μL into 30 μL of dimethyl sulfoxide seven times in 96 well plates for a total of 8 dilution points, and for each dilution point 1 μL is added to a well of an assay plate. […] The reaction is started with addition of 10 μL of 200 μM ATP (i.e. final 100 μM ATP). […] The plates are incubated for 3 hours at room temperature and read on Envision reader (Perkin Elmer). […] The signal vs. compound concentration is used to determine the IC50.

The next assay concerns Colo205 xenograft. Put plainly: Colo205 xenograft mouse model, tumor growth inhibition. The class given is in vivo. Conditions: COLO 205, 336 h, female nu/nu mice, 10 mg/kg daily for fourteen days. Here is the method: Tumor growth is monitored to approximately 100 mg size, and mice are distributed to treatment groups such that the mean tumor burden within a group is within 10% of the overall mean tumor burden. […] Mice are observed daily, with tumor burden and body weights measured twice a week. Animals with tumor burden above 1500-2000 mg and any animals in moribund condition are euthanized. The average tumor growth of vehicle control group mice is compared to the average tumor growth of the test compound mice. Percent tumor growth inhibition is calculated as 100×[(tumor growth control-tumor growth test compound)/tumor growth control].

A word on the IC50: it is the concentration at which inhibition is half-maximal. The compound `CCCS(=O)(=O)Nc1ccc(F)c(C(=O)c2c[nH]c3ncc(-c4ccc(NS(C)(=O)=O)cc4)cc23)c1F` [P-2165, Propane-1-sulfonic acid {2,4-difluoro-3-[5-(4-methanesulfonylamino-phenyl)-1H-pyrrolo[2,3-b]pyridine-3-carbonyl]-phenyl}-amide] showed an IC50 on A-Raf of less than 10 nM.

Regarding `O=C(c1c(F)ccc(NS(=O)(=O)c2cccc(F)c2)c1F)c1c[nH]c2nccc(Cl)c12` [P-2019, N-[3-(4-Chloro-1H-pyrrolo[2,3-b]pyridine-3-carbonyl)-2,4-difluoro-phenyl]-3-fluoro-benzenesulfonamide], on A-Raf, the half-maximal inhibitory concentration (IC50) is less than 10 nM.

Take `COc1cnc2[nH]cc(C(=O)c3c(F)ccc(NS(=O)(=O)c4ccccc4F)c3F)c2c1` [P-2009, N-[2,4-Difluoro-3-(5-methoxy-1H-pyrrolo[2,3-b]pyridine-3-carbonyl)-phenyl]-2-fluoro-benzenesulfonamide]: at A-Raf, the 50% inhibitory concentration (IC50) is less than 10 nM. The same measure, in the same setting: under `N#Cc1ccnc2[nH]cc(C(=O)c3c(F)ccc(NS(=O)(=O)c4ccccc4F)c3F)c12` [P-2020, N-[3-(4-Cyano-1H-pyrrolo[2,3-b]pyridine-3-carbonyl)-2,4-difluoro-phenyl]-2-fluoro-benzenesulfonamide] stands less than 10 nM; under `CCCS(=O)(=O)Nc1cccc(C(=O)c2c[nH]c3ncc(-c4cnc(OC)nc4)cc23)c1F` [P-2407, Propane-1-sulfonic acid {2-fluoro-3-[5-(2-methoxy-pyrimidin-5-yl)-1H-pyrrolo[2,3-b]pyridine-3-carbonyl]-phenyl}-amide], less than 10 nM; under `N#Cc1ccnc2[nH]cc(C(=O)c3c(F)ccc(NS(=O)(=O)c4cccc(F)c4)c3F)c12` [P-2039, N-[3-(4-Cyano-1H-pyrrolo[2,3-b]pyridine-3-carbonyl)-2,4-difluoro-phenyl]-3-fluoro-benzenesulfonamide], less than 10 nM. Same read-out and setting: in the case of `CCCS(=O)(=O)Nc1ccc(F)c(C(=O)c2c[nH]c3ncc(-c4ccc(OCCN5CCCC5)nc4)cc23)c1F` [P-2233, Propane-1-sulfonic acid (2,4-difluoro-3-{5-[6-(2-pyrrolidin-1-yl-ethoxy)-pyridin-3-yl]-1H-pyrrolo[2,3-b]pyridine-3-carbonyl}-phenyl)-amide] it was less than 10 nM. Take `CCCS(=O)(=O)Nc1ccc(F)c(C(=O)c2c[nH]c3ncc(-c4ccc(N5CCCC5)nc4)cc23)c1F` [P-2231, Propane-1-sulfonic acid {2,4-difluoro-3-[5-(6-pyrrolidin-1-yl-pyridin-3-yl)-1H-pyrrolo[2,3-b]pyridine-3-carbonyl]-phenyl}-amide]: at A-Raf, the IC50 is less than 10 nM.

Consider `Cc1cnc2[nH]cc(C(=O)c3c(F)ccc(NS(=O)(=O)c4cccc(F)c4)c3F)c2c1` [P-2016, N-[2,4-Difluoro-3-(5-methyl-1H-pyrrolo[2,3-b]pyridine-3-carbonyl)-phenyl]-3-fluoro-benzenesulfonamide], for which the IC50 against A-Raf is less than 10 nM. On the same count and under the same terms, in the case of `CCCS(=O)(=O)Nc1cccc(C(=O)c2c[nH]c3ncc(-c4cnc(N(C)C)nc4)cc23)c1F` [P-2408, Propane-1-sulfonic acid {3-[5-(2-dimethylamino-pyrimidin-5-yl)-1H-pyrrolo[2,3-b]pyridine-3-carbonyl]-2-fluoro-phenyl}-amide] it was less than 10 nM. The same measure, in the same setting: in the case of `O=C(c1c(F)ccc(NS(=O)(=O)c2ccccc2F)c1F)c1c[nH]c2nccc(Cl)c12` [P-2017, N-[3-(4-Chloro-1H-pyrrolo[2,3-b]pyridine-3-carbonyl)-2,4-difluoro-phenyl]-2-fluoro-benzenesulfonamide] it was less than 10 nM; in that of `N#Cc1ccnc2[nH]cc(C(=O)c3c(F)ccc(NS(=O)(=O)c4cccnc4)c3F)c12` [P-2077, Pyridine-3-sulfonic acid [3-(4-cyano-1H-pyrrolo[2,3-b]pyridine-3-carbonyl)-2,4-difluoro-phenyl]-amide], less than 10 nM.

For orientation: inhibition in vivo means the percentage by which the read-out fell short of the control. High values mean strong suppression, low ones little suppression. As for `CCCS(=O)(=O)Nc1ccc(F)c(C(=O)c2c[nH]c3ncc(-c4cnc(C)nc4)cc23)c1F` [P-2211, Propane-1-sulfonic acid {2,4-difluoro-3-[5-(2-methyl-pyrimidin-5-yl)-1H-pyrrolo[2,3-b]pyridine-3-carbonyl]-phenyl}-amide], the inhibition in vivo at 10 mg/kg in the assay with Colo205 xenograft was 0%. `O=C(c1c(F)ccc(NS(=O)(=O)c2cc(F)ccc2F)c1F)c1c[nH]c2nccc(Cl)c12` [P-2018, N-[3-(4-Chloro-1H-pyrrolo[2,3-b]pyridine-3-carbonyl)-2,4-difluoro-phenyl]-2,5-difluoro-benzenesulfonamide]: the 50% inhibitory concentration (IC50) on A-Raf is less than 10 nM. `CCCS(=O)(=O)Nc1ccc(F)c(C(=O)c2c[nH]c3ncc(-c4cncnc4)cc23)c1F` [P-2162, Propane-1-sulfonic acid [2,4-difluoro-3-(5-pyrimidin-5-yl-1H-pyrrolo[2,3-b]pyridine-3-carbonyl)-phenyl]-amide] showed an inhibition in vivo at 10 mg/kg in the assay on Colo205 xenograft of 17%. `CCCS(=O)(=O)Nc1ccc(F)c(C(=O)c2c[nH]c3ncc(-c4ccc(OCCCN5CCOCC5)nc4)cc23)c1F` [P-2236, Propane-1-sulfonic acid (2,4-difluoro-3-{5-[6-(3-morpholin-4-yl-propoxy)-pyridin-3-yl]-1H-pyrrolo[2,3-b]pyridine-3-carbonyl}-phenyl)-amide] showed a half-inhibitory concentration (IC50) on A-Raf of less than 10 nM.

On A-Raf, `COc1ccnc2[nH]cc(C(=O)c3c(F)ccc(NS(=O)(=O)c4cc(F)ccc4F)c3F)c12` [P-2022, N-[2,4-Difluoro-3-(4-methoxy-1H-pyrrolo[2,3-b]pyridine-3-carbonyl)-phenyl]-2,5-difluoro-benzenesulfonamide] gave a concentration for half-maximal inhibition (IC50) of less than 100 nM.

In turn, `CCCc1ccc(-c2cnc3[nH]cc(C(=O)c4c(F)ccc(NS(=O)(=O)CCC)c4F)c3c2)cn1` [P-2224, Propane-1-sulfonic acid {2,4-difluoro-3-[5-(6-propyl-pyridin-3-yl)-1H-pyrrolo[2,3-b]pyridine-3-carbonyl]-phenyl}-amide] came in with a half-inhibitory concentration (IC50) at A-Raf of less than 10 nM. In the case of `Cc1cnc2[nH]cc(C(=O)c3c(F)ccc(NS(=O)(=O)c4ccccc4F)c3F)c2c1` [P-2014, N-[2,4-Difluoro-3-(5-methyl-1H-pyrrolo[2,3-b]pyridine-3-carbonyl)-phenyl]-2-fluoro-benzenesulfonamide], the IC50 against A-Raf is less than 10 nM. With `O=C(c1c(F)ccc(NS(=O)(=O)c2cc(F)ccc2F)c1F)c1c[nH]c2ncc(Cl)cc12` [P-2002, N-[3-(5-Chloro-1H-pyrrolo[2,3-b]pyridine-3-carbonyl)-2,4-difluoro-phenyl]-2,5-difluoro-benzenesulfonamide], at A-Raf, the IC50 was less than 10 nM. On the same count and under the same terms, in the case of `CCCS(=O)(=O)Nc1ccc(F)c(C(=O)c2c[nH]c3ncc(-c4ccc(OCCCN5CCCC5)nc4)cc23)c1F` [P-2235, Propane-1-sulfonic acid (2,4-difluoro-3-{5-[6-(3-pyrrolidin-1-yl-propoxy)-pyridin-3-yl]-1H-pyrrolo[2,3-b]pyridine-3-carbonyl}-phenyl)-amide] it was less than 10 nM; in that of `COc1cnc2[nH]cc(C(=O)c3c(F)ccc(NS(=O)(=O)c4cc(F)ccc4F)c3F)c2c1` [P-2010, N-[2,4-Difluoro-3-(5-methoxy-1H-pyrrolo[2,3-b]pyridine-3-carbonyl)-phenyl]-2,5-difluoro-benzenesulfonamide], less than 10 nM; in that of `N#Cc1ccnc2[nH]cc(C(=O)c3c(F)ccc(NS(=O)(=O)c4c(F)cccc4F)c3F)c12` [P-2037, N-[3-(4-Cyano-1H-pyrrolo[2,3-b]pyridine-3-carbonyl)-2,4-difluoro-phenyl]-2,6-difluoro-benzenesulfonamide], less than 10 nM. `COc1ccnc2[nH]cc(C(=O)c3c(F)ccc(NS(=O)(=O)c4ccccc4F)c3F)c12` [P-2021, N-[2,4-Difluoro-3-(4-methoxy-1H-pyrrolo[2,3-b]pyridine-3-carbonyl)-phenyl]-2-fluoro-benzenesulfonamide]: in the assay on Colo205 xenograft, testing at 10 mg/kg gave an inhibition in vivo of 35%. The same measure, in the same setting: under `CCCS(=O)(=O)Nc1ccc(F)c(C(=O)c2c[nH]c3ncc(-c4ccc(OCCCN(C)C)nc4)cc23)c1F` [P-2178, Propane-1-sulfonic acid (3-{5-[6-(3-dimethylamino-propoxy)-pyridin-3-yl]-1H-pyrrolo[2,3-b]pyridine-3-carbonyl}-2,4-difluoro-phenyl)-amide] stands 0%. Turning to `N#Cc1ccnc2[nH]cc(C(=O)c3c(F)ccc(NS(=O)(=O)c4cc(F)ccc4F)c3F)c12` [P-2036, N-[3-(4-Cyano-1H-pyrrolo[2,3-b]pyridine-3-carbonyl)-2,4-difluoro-phenyl]-2,5-difluoro-benzenesulfonamide], the IC50 on A-Raf was less than 10 nM.

The record behind these values is patent publication US8198273B2, “Compounds and methods for kinase modulation, and indications therefor” (Plexxikon Inc., priority 2009, dated 2012).
